{"source": "patent US7132458B2", "about": "“Oxidized carotenoid fractions and ketoaldehyde useful as cell-differentiation inducers, cytostatic agents, and anti-tumor agents” (Chemaphor Inc., priority 1994, dated 2006)", "key": {"K562": {"system": "K562", "details": "from U.S. Ser. No. 08/527,039; cited from earlier work"}, "[1]": {"system": "DA-3 mammary adenocarcinoma", "details": "over 28 days; from U.S. Ser. No. 08/527,039; cited from earlier work"}, "NB4": {"system": "NB4", "details": "from U.S. Ser. No. 08/527,039; cited from earlier work"}, "HT29 colon cancer": {"system": "HT29 colon cancer", "assay": "Inhibition of proliferation, fluorescence-based assay", "format": "cell-based", "details": "Homo sapiens, HT-29, 10–175 μM, 72 hours, read-out: Relative Inhibition of Proliferation", "method": "(§1) The effect of the ketoaldehyde upon the inhibition of cell proliferation in cultured cancer cells was determined using a conventional, fluorescence-based anti-proliferative assay and a flow cytometry method. The extent of apoptosis was determined for some cell lines as well.\n(§2) The effect of different concentrations of the ketoaldehyde upon the proliferation of the SW480 colorectal and MCF-7 breast cancer cell lines as a function of time is provided in FIGS. 12 and 13, respectively. The inhibition of proliferation in individual cell lines is summarized in Table 10, which provides a relative ranking of the ketoaldehyde's IC50 for each cell line."}, "IMR32 neuroblastoma": {"system": "IMR32 neuroblastoma", "assay": "Inhibition of proliferation, fluorescence-based assay", "format": "cell-based", "details": "Homo sapiens, IMR-32, 10–175 μM, 72 hours, read-out: Relative Inhibition of Proliferation", "method": "as §1, §2"}, "[2]": {"system": "NB4 acute promyelocytic leukemia", "assay": "Inhibition of proliferation, fluorescence-based assay", "format": "cell-based", "details": "Homo sapiens, 10–175 μM, 72 hours, read-out: Relative Inhibition of Proliferation", "method": "as §1, §2"}, "HCT116 colon cancer": {"system": "HCT116 colon cancer", "assay": "Inhibition of proliferation, fluorescence-based assay", "format": "cell-based", "details": "Homo sapiens, HCT-116, 10–175 μM, 72 hours, read-out: Relative Inhibition of Proliferation", "method": "as §1, §2"}, "[3]": {"system": "K562 chronic myelogenous leukemia", "assay": "Inhibition of proliferation, fluorescence-based assay", "format": "cell-based", "details": "Homo sapiens, 10–175 μM, 72 hours, read-out: Relative Inhibition of Proliferation", "method": "as §1, §2"}, "HCT116": {"system": "HCT116", "details": "from U.S. Ser. No. 08/527,039; cited from earlier work"}, "LS174T colorectal tumor": {"system": "LS174T colorectal tumor", "assay": "Human xenograft tumor growth, SCID mice", "format": "in vivo, mouse", "details": "thrice-weekly dosing 40 mg/kg"}, "[4]": {"system": "MCF-7 human breast cancer tumor", "assay": "Human xenograft tumor growth, nude mice", "format": "in vivo, mouse", "details": "40 mg/kg body weight", "source_text": "[…] […] While the MCF-7 cell line appears to be less susceptible to the ketoaldehyde than the SW480 cell line, it should be noted that the MCF-7-derived tumors grow more aggressively than those derived from SW480, which necessitated using 20-fold fewer MCF-7 cells to obtain an initially slower rate of tumor growth."}, "Lewis lung carcinoma": {"system": "Lewis lung carcinoma", "assay": "Lewis lung carcinoma model, lung metastases", "format": "in vivo, mouse", "method": "The well-known Lewis lung carcinoma model was used as follows: cells were injected subcutaneously into the flanks of C57 BL/6 mice, which were assigned into control and treated groups containing ten animals per group. On day 8, the tumor was excised. The ketoaldehyde (200 mg/kg body weight) in 20% aqueous ethanol or drug vehicle (aqueous ethanol) was administered intraperitoneally on days 9, 11, 13, 15 and 19. On day 22, the animals were sacrificed and their lungs were removed. The lungs were weighed and the number of metastases determined by counting the nodules established in each lung."}, "[5]": {"system": "HL-60 acute promyelocytic leukemia", "assay": "Inhibition of proliferation and apoptosis, flow cytometry", "format": "cell-based", "details": "Homo sapiens, 20–100 μM, 24, 48, 72 and 96 hours, read-out: Relative Inhibition of Proliferation", "method": "as §1, §2"}, "[6]": {"system": "MCF-7 breast adenocarcinoma", "assay": "Inhibition of proliferation and apoptosis, flow cytometry", "format": "cell-based", "details": "Homo sapiens, MCF7, 20–100 μM, 24, 48, 72 and 96 hours, read-out: Relative Inhibition of Proliferation", "method": "as §1, §2"}, "[7]": {"system": "SW480 colorectal adenocarcinoma", "assay": "Inhibition of proliferation and apoptosis, flow cytometry", "format": "cell-based", "details": "Homo sapiens, 20–100 μM, 24, 48, 72 and 96 hours, read-out: Relative Inhibition of Proliferation", "method": "as §1, §2"}, "[8]": {"system": "SK-Mel malignant melanoma epidermal", "assay": "Inhibition of proliferation and apoptosis, flow cytometry", "format": "cell-based", "details": "Homo sapiens, 20–100 μM, 24, 48, 72 and 96 hours, read-out: Relative Inhibition of Proliferation", "method": "as §1, §2"}, "[9]": {"system": "D 341 medulloblastoma (brain)", "assay": "Inhibition of proliferation and apoptosis, flow cytometry", "format": "cell-based", "details": "Homo sapiens, D341, 20–100 μM, 24, 48, 72 and 96 hours, read-out: Relative Inhibition of Proliferation", "method": "as §1, §2"}, "[10]": {"system": "NCI-H23 non-small cell lung cancer", "assay": "Inhibition of proliferation and apoptosis, flow cytometry", "format": "cell-based", "details": "Homo sapiens, 20–100 μM, 24, 48, 72 and 96 hours, read-out: Relative Inhibition of Proliferation", "method": "as §1, §2"}, "[11]": {"system": "HCC 1143 breast carcinoma", "assay": "Inhibition of proliferation and apoptosis, flow cytometry", "format": "cell-based", "details": "Homo sapiens, HCC1143, 20–100 μM, 24, 48, 72 and 96 hours, read-out: Relative Inhibition of Proliferation", "method": "as §1, §2"}, "IMR32": {"system": "IMR32", "details": "from U.S. Ser. No. 08/527,039; cited from earlier work"}, "Pilot toxicity study": {"assay": "Pilot toxicity study", "format": "in vivo", "method": "Significant inhibition of tumor growth has been obtained with doses of only 10–40 mg/kg body weight. Thus, the ketoaldehyde has a therapeutic index (400/(10–40)) of approximately 10 to 40."}, "[12]": {"system": "LNCaP-FGC-10 prostate tumors", "assay": "Human xenograft tumor growth, nude mice", "format": "in vivo, mouse", "source_text": "The ketoaldehyde is also active against human LNCaP-FGC-10 prostate tumors grown in nude mice."}, "[13]": {"system": "SW480 human colorectal tumor", "assay": "Human xenograft tumor growth, nude mice", "format": "in vivo, mouse", "details": "40 mg/kg body weight three times per week, FIG. 14", "method": "FIG. 14 is a graph illustrating the inhibition of growth by the ketoaldehyde of a tumor derived from human colorectal cancer cells. Balb/c nude mice were inoculated subcutaneously in the flank with 5.0×10^6 cells of the SW-480 human colorectal adenocarcinoma cell line. There were 7 control animals and 7 animals in the treatment group. The administration schedule was 40 mg/kg of ketoaldehyde in 20% ethanol in saline given by intraperitoneal injection 3 times per week (Monday, Wednesday and Friday).\nThe ketoaldehyde provides a significant degree of tumor growth control for a period of more than 67 days in a nude mouse xenograft model of human colon cancer (human colon cancer cell line, SW480; see FIG. 14)."}}, "data": [{"compound": "CC(=O)C=CC=C(C)C=O", "note": "[the ketoaldehyde, 2-methyl-6-oxo-2,4-heptadienal]", "values": [{"measurement": "cytostatic effect", "setting": "K562", "result": "cytostatic effect"}, {"measurement": "tumor volume", "setting": "[1]", "result": "less than 50 % of the control"}, {"measurement": "cytostatic effect", "setting": "NB4", "result": "cytostatic effect"}, {"measurement": "IC50", "setting": "HT29 colon cancer", "result": "~100", "unit": "µM"}, {"measurement": "IC50", "setting": "IMR32 neuroblastoma", "result": "~50", "unit": "µM"}, {"measurement": "IC50", "setting": "[2]", "result": "~100", "unit": "µM"}, {"measurement": "IC50", "setting": "HCT116 colon cancer", "result": "~50", "unit": "µM"}, {"measurement": "IC50", "setting": "[3]", "result": "> 100", "unit": "µM"}, {"measurement": "cytostatic effect", "setting": "HCT116", "result": "cytostatic effect"}, {"measurement": "tumor response", "setting": "LS174T colorectal tumor", "result": "responded well"}, {"measurement": "tumor response", "setting": "[4]; daily dosing", "result": "improved response"}, {"measurement": "tumor response", "setting": "[4]; thrice-weekly dosing", "result": "responded"}, {"measurement": "Mean Lung Weight ± SEM", "setting": "Lewis lung carcinoma; 200 mg/kg i.p. days 9, 11, 13, 15, 19, day 22, control 0.287 ± 0.013 g, 2-tail t-test 0.004", "result": "0.229 ± 0.012", "unit": "g"}, {"measurement": "Mean No. Metastases ± SEM", "setting": "Lewis lung carcinoma; 200 mg/kg i.p. days 9, 11, 13, 15, 19, day 22, control 28.0 ± 2.4, 2-tail t-test 0.01", "result": "14.4 ± 4.1"}, {"measurement": "Difference in Mean Lung Weight, control minus treated", "setting": "Lewis lung carcinoma; 200 mg/kg i.p., day 22", "result": 0.058, "unit": "g"}, {"measurement": "Difference in Mean No. Metastases, control minus treated", "setting": "Lewis lung carcinoma; 200 mg/kg i.p., day 22", "result": 13.6}, {"measurement": "reduction in the number of lung metastases", "setting": "Lewis lung carcinoma; treated animals versus control", "result": "~50", "unit": "%"}, {"measurement": "IC50", "setting": "[5]", "result": "~50", "unit": "µM"}, {"measurement": "IC50", "setting": "[6]", "result": "~50", "unit": "µM"}, {"measurement": "IC50", "setting": "[7]", "result": "~50", "unit": "µM"}, {"measurement": "IC50", "setting": "[8]", "result": "~100", "unit": "µM"}, {"measurement": "IC50", "setting": "[9]", "result": "~50", "unit": "µM"}, {"measurement": "IC50", "setting": "[10]", "result": "~50", "unit": "µM"}, {"measurement": "IC50", "setting": "[11]", "result": "> 100", "unit": "µM"}, {"measurement": "cytostatic effect", "setting": "IMR32", "result": "cytostatic effect"}, {"measurement": "LD100", "setting": "Pilot toxicity study; mice, pilot toxicity study", "result": "approximately 400 mg/kg body weight"}, {"measurement": "therapeutic index (400/(10–40))", "setting": "Pilot toxicity study; mouse, in vivo", "result": "10–40"}, {"measurement": "toxicity at therapeutically functional doses", "setting": "Pilot toxicity study; mouse, in vivo", "result": "No toxicity"}, {"measurement": "activity against tumors", "setting": "[12]", "result": "active"}, {"measurement": "period of significant tumor growth control", "setting": "[13]", "result": "more than 67 days"}]}]}
